Values after ≈ are worked out from the molar mass of the structure shown. Active and inactive are the calls of the source. No cut-off for these calls is given here.
Tests used:
Plasmodium falciparum [1] = test: Antiplasmodial activity against chloroquine-sensitive Plasmodium falciparum 3D7 after 72 hrs by SYBR Green-1 dye-based fluorescence assay; format: functional, organism-based; conditions: 3D7, 72 h
[2] = Selectivity index, ratio of IC50 for African green monkey Vero cells to IC50 for Plasmodium falciparum; format: toxicity, cell-based; conditions: read-out: Ratio IC50
Plasmodium yoelii [3] = test: Inhibition of beta-hematin formation in Plasmodium yoelii infected Swiss mouse plasma after 16 hrs; format: functional
[4] = Inhibition of Plasmodium falciparum transketolase using fructose-6-phosphate as substrate by spectrophotometric analysis
Plasmodium falciparum [5] = test: Antiplasmodial activity against chloroquine-resistant Plasmodium falciparum K1 after 72 hrs by SYBR Green-1 dye-based fluorescence assay; format: functional, organism-based; conditions: K1, 72 h
Plasmodium yoelii [6] = test: Antimalarial activity against chloroquine-resistant Plasmodium yoelii N-67 infected in Swiss mouse assessed as mouse survival at 100 mg/kg, po qd for 4 days measured on day 28; format: functional, organism-based; set-up: dose 100 mg/kg
Plasmodium yoelii [7] = test: Antimalarial activity against chloroquine-resistant Plasmodium yoelii N-67 infected in Swiss mouse assessed as inhibition of parasitemia at 100 mg/kg, po qd for 4 days relative to control; format: functional; conditions: N-67, 96 h
Plasmodium yoelii [8] = test: Antimalarial activity against chloroquine-resistant Plasmodium yoelii N-67 infected in Swiss mouse assessed as inhibition of parasitemia at 50 mg/kg, po qd for 4 days relative to control; format: functional; conditions: N-67, 96 h
Plasmodium yoelii [9] = test: Antimalarial activity against chloroquine-resistant Plasmodium yoelii N-67 infected in Swiss mouse assessed as mouse survival at 50 mg/kg, po qd for 4 days measured on day 28; format: functional, organism-based; set-up: dose 50 mg/kg

| SMILES | IC50 (Plasmodium falciparum [1]) [µg/mL] | selectivity ratio [2] | IC50 (Plasmodium yoelii [3]) [µg/mL] | IC50 [4] [µM] | IC50 (Plasmodium falciparum [5]) [µg/mL] | Activity (Plasmodium yoelii [6]) | inhibition in vivo at 100 mg/kg (Plasmodium yoelii [7]) [%] | inhibition in vivo at 50 mg/kg (Plasmodium yoelii [8]) [%] | Activity (Plasmodium yoelii [9]) |
| --- | --- | --- | --- | --- | --- | --- | --- | --- | --- |
| COc1ccc(Nc2nc(NCCCN3CCOCC3)nc(Nc3ccc(Nc4ccnc5cc(Cl)ccc45)cc3)n2)cc1 | 0.00381 (≈ 0.00622 µM) | 1310 | 2.34 (≈ 3.82 µM) | 72.7 | 0.155 (≈ 0.253 µM) |  |  |  |  |
| Clc1ccc(Nc2nc(NCCCN3CCOCC3)nc(Nc3ccc(Nc4ccnc5cc(Cl)ccc45)cc3)n2)cc1 | 0.00463 (≈ 0.00751 µM) | 482 | 2.25 (≈ 3.65 µM) |  | 0.00858 (≈ 0.0139 µM) |  |  |  |  |
| Clc1ccc2c(Nc3ccc(Nc4nc(NCCN5CCOCC5)nc(N5CCc6ccccc6C5)n4)cc3)ccnc2c1 | 0.0452 (≈ 0.0743 µM) | 1160 | 2.08 (≈ 3.42 µM) |  |  |  |  |  |  |
| Fc1ccc(Nc2nc(Nc3ccc(Nc4ccnc5cc(Cl)ccc45)cc3)nc(N3CCCCC3)n2)cc1 | 0.0417 (≈ 0.0772 µM) | 520 | 2.43 (≈ 4.49 µM) |  | > 0.5 |  |  |  |  |
| Fc1cccc(Nc2nc(Nc3ccc(Nc4ccnc5cc(Cl)ccc45)cc3)nc(N3CCCCC3)n2)c1 | 0.129 (≈ 0.238 µM) | 75.1 | 3.1 (≈ 5.73 µM) |  | 0.107 (≈ 0.197 µM) |  |  |  |  |
| CN1CCN(c2nc(Nc3ccc(F)cc3)nc(Nc3ccc(Nc4ccnc5cc(Cl)ccc45)cc3)n2)CC1 | 0.00897 (≈ 0.0161 µM) | 122 | 2.08 (≈ 3.74 µM) |  | 0.00206 (≈ 0.0037 µM) | inactive | 100 |  |  |
| Clc1ccc2c(Nc3ccc(Nc4nc(NCCCN5CCOCC5)nc(N5CCc6ccccc6C5)n4)cc3)ccnc2c1 | 0.0203 (≈ 0.0327 µM) | 436 | 2.09 (≈ 3.36 µM) |  | 0.0555 (≈ 0.0892 µM) |  |  |  |  |
| Fc1cccc(Nc2nc(NCCCN3CCOCC3)nc(Nc3ccc(Nc4ccnc5cc(Cl)ccc45)cc3)n2)c1 | 0.00136 (≈ 0.00227 µM) | 551 | 2.06 (≈ 3.43 µM) | 76.7 | 0.00571 (≈ 0.00952 µM) | inactive | 100 |  |  |
| COc1ccc(Nc2nc(NCCCN3CCOCC3)nc(Nc3ccc(Nc4ccnc5cc(Cl)ccc45)cc3)n2)cc1OC | 0.00458 (≈ 0.00713 µM) | 413 | 2.3 (≈ 3.58 µM) |  | 0.0026 (≈ 0.00405 µM) |  |  |  |  |
| Clc1cccc(Nc2nc(NCCCN3CCOCC3)nc(Nc3ccc(Nc4ccnc5cc(Cl)ccc45)cc3)n2)c1 | 0.00382 (≈ 0.0062 µM) | 180 | 4.56 (≈ 7.4 µM) | 76.4 | 0.00882 (≈ 0.0143 µM) |  |  |  |  |
| Clc1ccc2c(Nc3ccc(Nc4nc(NCCCN5CCOCC5)nc(N5CCCc6ccccc65)n4)cc3)ccnc2c1 | 0.0147 (≈ 0.0236 µM) | 440 | 2.4 (≈ 3.86 µM) |  | > 0.5 |  |  |  |  |
| CN1CCN(c2nc(Nc3ccc(Nc4ccnc5cc(Cl)ccc45)cc3)nc(N3CCc4ccccc4C3)n2)CC1 | 0.0281 (≈ 0.0486 µM) | 48.4 | 2.81 (≈ 4.86 µM) |  |  |  |  |  |  |
| COc1ccc(Nc2nc(Nc3ccc(Nc4ccnc5cc(Cl)ccc45)cc3)nc(N3CCN(C)CC3)n2)cc1OC | 0.00504 (≈ 0.00843 µM) | 169 | 3.05 (≈ 5.1 µM) |  | 0.00486 (≈ 0.00813 µM) |  |  |  |  |
| Fc1ccc(Nc2nc(NCCCN3CCOCC3)nc(Nc3ccc(Nc4ccnc5cc(Cl)ccc45)cc3)n2)cc1 | 0.0158 (≈ 0.0264 µM) | 682 | 2.17 (≈ 3.62 µM) |  |  |  |  |  |  |
| CCN1CCN(c2nc(Nc3ccc(Cl)cc3)nc(Nc3ccc(Nc4ccnc5cc(Cl)ccc45)cc3)n2)CC1 | 0.00414 (≈ 0.00706 µM) | 67.6 | 2.05 (≈ 3.5 µM) |  | 0.00981 (≈ 0.0167 µM) |  |  |  |  |
| Clc1ccc2c(Nc3ccc(Nc4nc(NCCN5CCOCC5)nc(N5CCCc6ccccc65)n4)cc3)ccnc2c1 | 0.0174 (≈ 0.0285 µM) | 588 | 2.31 (≈ 3.8 µM) |  | 0.275 (≈ 0.452 µM) |  |  |  |  |
| CCN1CCN(c2nc(Nc3ccc(Nc4ccnc5cc(Cl)ccc45)cc3)nc(Nc3cccc(Cl)c3)n2)CC1 | 0.00211 (≈ 0.0036 µM) | 318 | 2.06 (≈ 3.51 µM) | 74.5 | 0.00496 (≈ 0.00846 µM) |  |  |  |  |
| Fc1ccc(Nc2nc(NCCN3CCOCC3)nc(Nc3ccc(Nc4ccnc5cc(Cl)ccc45)cc3)n2)cc1 | 0.00981 (≈ 0.0167 µM) | 1330 | 2.38 (≈ 4.06 µM) |  | 0.0954 (≈ 0.163 µM) | inactive | 100 |  |  |
| CCN1CCN(c2nc(Nc3ccc(Nc4ccnc5cc(Cl)ccc45)cc3)nc(N3CCCc4ccccc43)n2)CC1 | 0.0208 (≈ 0.0352 µM) | 36 | 6.55 (≈ 11.1 µM) |  | 0.0116 (≈ 0.0197 µM) | inactive | 99 | 77.8 | inactive |

| SMILES | IC50 (Plasmodium falciparum [1]) [µg/mL] | selectivity ratio [2] | IC50 (Plasmodium yoelii [3]) [µg/mL] | IC50 [4] [µM] | IC50 (Plasmodium falciparum [5]) [µg/mL] | Activity (Plasmodium yoelii [6]) | inhibition in vivo at 100 mg/kg (Plasmodium yoelii [7]) [%] | inhibition in vivo at 50 mg/kg (Plasmodium yoelii [8]) [%] | Activity (Plasmodium yoelii [9]) |
| --- | --- | --- | --- | --- | --- | --- | --- | --- | --- |
| CCN1CCN(c2nc(Nc3ccc(Nc4ccnc5cc(Cl)ccc45)cc3)nc(Nc3ccc(OC)cc3)n2)CC1 | 0.00426 (≈ 0.00732 µM) | 75.1 | 2.08 (≈ 3.57 µM) |  | 0.00308 (≈ 0.00529 µM) |  |  |  |  |
| Clc1ccc2c(Nc3ccc(Nc4nc(NCCN5CCOCC5)nc(N5CCOCC5)n4)cc3)ccnc2c1 | 0.00587 (≈ 0.0104 µM) | 41.6 | 9.82 (≈ 17.5 µM) |  | 0.0532 (≈ 0.0946 µM) |  |  |  |  |
| Clc1ccc2c(Nc3ccc(Nc4nc(NCCCN5CCOCC5)nc(N5CCOCC5)n4)cc3)ccnc2c1 | 0.00276 (≈ 0.00479 µM) | 3320 | 2.98 (≈ 5.17 µM) |  | 0.00266 (≈ 0.00462 µM) |  | 100 | 98.4 | inactive |
| CCN1CCN(c2nc(Nc3ccc(Nc4ccnc5cc(Cl)ccc45)cc3)nc(Nc3ccc(OC)c(OC)c3)n2)CC1 | 0.00258 (≈ 0.00421 µM) | 624 | 2.45 (≈ 4 µM) | 85.5 | 0.0023 (≈ 0.00376 µM) |  |  |  |  |
| CN1CCN(c2nc(Nc3ccc(Nc4ccnc5cc(Cl)ccc45)cc3)nc(N3CCOCC3)n2)CC1 | 0.00322 (≈ 0.00605 µM) | 121 | 6.5 (≈ 12.2 µM) |  | 0.00286 (≈ 0.00538 µM) |  |  |  |  |
| CN1CCN(c2nc(Nc3ccc(Nc4ccnc5cc(Cl)ccc45)cc3)nc(Nc3cccc(F)c3)n2)CC1 | 0.0228 (≈ 0.041 µM) | 55.3 | 3.03 (≈ 5.45 µM) |  | 0.00154 (≈ 0.00277 µM) | inactive | 100 | 99.8 | inactive |
| O=C(O)C(=O)Cc1ccc(O)cc1 [4-HYDROXYPHENYLPYRUVIC ACID] |  |  |  | 103 |  |  |  |  |  |
| COc1cccc(Nc2nc(NCCCN3CCOCC3)nc(Nc3ccc(Nc4ccnc5cc(Cl)ccc45)cc3)n2)c1 | 0.00298 (≈ 0.00487 µM) | 2500 | 3.49 (≈ 5.7 µM) |  |  |  |  |  |  |
| CN1CCN(c2nc(Nc3ccc(Nc4ccnc5cc(Cl)ccc45)cc3)nc(N3CCCc4ccccc43)n2)CC1 | 0.0126 (≈ 0.0219 µM) | 74.4 | 2.48 (≈ 4.29 µM) |  | 0.0682 (≈ 0.118 µM) |  |  |  |  |
| CCN1CCN(c2nc(Nc3ccc(Nc4ccnc5cc(Cl)ccc45)cc3)nc(N3CCOCC3)n2)CC1 | 0.00216 (≈ 0.00396 µM) | 431 | 4.17 (≈ 7.64 µM) |  | 0.0147 (≈ 0.0269 µM) | inactive | 100 | 93.5 | inactive |
| CCN1CCN(c2nc(Nc3ccc(Nc4ccnc5cc(Cl)ccc45)cc3)nc(Nc3cccc(OC)c3)n2)CC1 | 0.0089 (≈ 0.0153 µM) | 73 | 2.25 (≈ 3.87 µM) |  |  |  |  |  |  |
| COc1cccc(Nc2nc(Nc3ccc(Nc4ccnc5cc(Cl)ccc45)cc3)nc(N3CCN(C)CC3)n2)c1 | 0.00426 (≈ 0.0075 µM) | 117 | 2.05 (≈ 3.61 µM) |  |  |  |  |  |  |
| Fc1cccc(Nc2nc(NCCN3CCOCC3)nc(Nc3ccc(Nc4ccnc5cc(Cl)ccc45)cc3)n2)c1 | 0.04 (≈ 0.0683 µM) | 122 | 2.7 (≈ 4.61 µM) |  | 0.0781 (≈ 0.133 µM) |  |  |  |  |
| CCN1CCN(c2nc(Nc3ccc(F)cc3)nc(Nc3ccc(Nc4ccnc5cc(Cl)ccc45)cc3)n2)CC1 | 0.0111 (≈ 0.0195 µM) | 88.2 | 2.64 (≈ 4.63 µM) |  | 0.0198 (≈ 0.0347 µM) |  |  |  |  |
| CN1CCN(c2nc(Nc3ccc(Cl)cc3)nc(Nc3ccc(Nc4ccnc5cc(Cl)ccc45)cc3)n2)CC1 | 0.0078 (≈ 0.0136 µM) | 66.7 | 2.17 (≈ 3.79 µM) |  | 0.0352 (≈ 0.0614 µM) | inactive | 100 |  |  |
| CN1CCN(c2nc(Nc3ccc(Nc4ccnc5cc(Cl)ccc45)cc3)nc(Nc3cccc(Cl)c3)n2)CC1 | 0.00241 (≈ 0.00421 µM) | 361 | 2.42 (≈ 4.23 µM) | 80.2 | 0.0169 (≈ 0.0295 µM) |  |  |  |  |
| CCN1CCN(c2nc(Nc3ccc(Nc4ccnc5cc(Cl)ccc45)cc3)nc(N3CCc4ccccc4C3)n2)CC1 | 0.0121 (≈ 0.0205 µM) | 75.9 | 2.25 (≈ 3.8 µM) |  | 0.116 (≈ 0.196 µM) |  |  |  |  |
| Clc1cccc(Nc2nc(NCCN3CCOCC3)nc(Nc3ccc(Nc4ccnc5cc(Cl)ccc45)cc3)n2)c1 | 0.0306 (≈ 0.0508 µM) | 101 | 2.01 (≈ 3.34 µM) |  | 0.00649 (≈ 0.0108 µM) |  |  |  |  |
| CCN1CCN(c2nc(Nc3ccc(Nc4ccnc5cc(Cl)ccc45)cc3)nc(Nc3cccc(F)c3)n2)CC1 | 0.00247 (≈ 0.00433 µM) | 149 | 2.06 (≈ 3.61 µM) | 75 |  |  |  |  |  |
